Measurements taken from paper PMC9870890 (Nature Communications, 2023).
Substitutions are numbered along the chain they refer to. Where “and” joins values, the source holds several entries; their conditions need not be identical. Identical values can stand only once. Like-named read-outs stand apart in the source and are kept apart here.

How the values were obtained:
[1] = biological target: M2 muscarinic receptor (M2R), wild type (human) (UniProt P08172)
M2R [2] = biological target: T1, M2R (Homo sapiens, UniProt P08172, M139L/M142L/M1T/M248L/M296L/M368L/M456T/M45L); assay type: biochemical; conditions: 100 μM Ixo or 1 mM carbachol
T1 construct: We used a full-length construct M2RFL△8 M for complexing with miniGαo and β-arrestin-1; FLAG (N); 8xHis (C); made in house; host or cells: Sf9 insect cells
T1 sequence (P08172 1-466 M1T/M45L/M139L/M142L/M248L/M296L/M368L/M456T): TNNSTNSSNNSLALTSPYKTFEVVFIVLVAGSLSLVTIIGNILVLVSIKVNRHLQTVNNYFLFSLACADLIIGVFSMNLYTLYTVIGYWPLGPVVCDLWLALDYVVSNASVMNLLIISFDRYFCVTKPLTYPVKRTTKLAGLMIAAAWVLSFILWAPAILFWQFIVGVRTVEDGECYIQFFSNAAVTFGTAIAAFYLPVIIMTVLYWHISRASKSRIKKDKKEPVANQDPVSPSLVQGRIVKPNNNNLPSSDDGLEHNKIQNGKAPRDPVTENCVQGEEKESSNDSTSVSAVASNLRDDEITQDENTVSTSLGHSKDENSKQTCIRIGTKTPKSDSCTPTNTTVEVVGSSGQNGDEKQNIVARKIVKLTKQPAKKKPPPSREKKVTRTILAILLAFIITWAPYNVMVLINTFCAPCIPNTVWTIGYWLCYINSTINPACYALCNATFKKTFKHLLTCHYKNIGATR
Protocol: We used a full-length construct M2RFL△8 M for complexing with miniGαo and β-arrestin-1. The receptor was purified as described above for cryo-EM sample. Excess GRK2 was mixed with the M2R in a buffer composed of 20 mM HEPES pH 7.5, 100 mM NaCl, 0.01% MNG, 0.003% CHS, 500 μM ATP in the presence and absence of 100 μM Ixo or 1 mM carbachol to initiate the phosphorylation at room temperature. The extent of phosphorylation at various time points (from 0 to 120 min) was evaluated by Pro-Q and Coomassie blue staining. The final phosphorylated receptor (Ixo-bound) was further evaluated by ion-exchange chromatography. The complex formation test was performed as follows: unphosphorylated Ixo-bound M2RFL△8 M or phosphorylated M2RFL△8 M was mixed with miniGαo or β-arrestin-1, respectively and incubated on ice for 30 min. The receptor alone or mixed complex sample were then analyzed by SEC against 20 mM HEPES pH 7.5, 100 mM NaCl, 0.01% MNG, 0.003% CHS in the presence of 10 μM Ixo.

M2R and GoA = biological target: T2, M2R and GoA (Homo sapiens, UniProt P08172); assay: GTPase-Glo assay (GTP turnover) with purified M2R and GoA; assay type: biochemical; conditions: purified wild-type receptor and G-protein
T2 construct: FLAG (N); 8xHis (C); made in house; host or cells: Sf9 insect cells (receptor)
Protocol: The receptors for GTPase-Glo^TM assay were expressed and purified as described above and frozen at −80 °C before use. […] The GTPase reaction was incubated at room temperature (22–25 °C) for different times (15–90 min). […] After incubation, 5 μL reconstituted 1xGTPase-Glo^TM Reagent (Promega) was added to the completed GTPase reaction, mixed briefly and incubated with shaking for 30 min at room temperature (22–25 °C) to convert the remaining GTP into ATP. Then 10 μL Detection Reagent (Promega) was added to the system and incubated for 5-10 min at room temperature (22–25 °C) to convert the ATP into luminescent signals. Luminescence intensity was quantified using a Multimode Plate Reader (PerkinElmer) luminescence counter.

M2R [3] = biological target: T3, M2R (Homo sapiens, UniProt P08172)
T3 sequence (P08172 1-466): T1 sequence (P08172 1-466 M1T/M45L/M139L/M142L/M248L/M296L/M368L/M456T) with T1M, L45M, L139M, L142M, L248M, L296M, L368M, T456M

M2R [4] = biological target: T3, M2R; assay: cell-based; set-up: expressed in transfected cells; host or cells: HEK 293T; conditions: for Emax: HEK-293T
Protocol: Determination of β-arrestin-2 recruitment was performed applying the PathHunter assay (DiscoverX, Birmingham, U.K.) which is based on fragment complementation of β-galactosidase as described. In detail, HEK293T cells were transfected with the flag-tagged M2 receptor carrying the PKA fragment for enzyme complementation and transferred into 384-well micro plates. […] Determination of chemoluminescence was done with a Clariostar plate reader (BMG, Ortenberg, Germany). […] Normalized curves from three to five individual experiments each done in duplicate were analyzed by non-linear regression applying the algorithms in Prism 8.0 (GraphPad, San Diego, CA) to get dose-response curves representing average EC50 and Emax value.

heterotrimeric GoA protein (from UniProt P09471 1-354; P62873 2-340; P59768 1-71) (complex)
increase of the affinity of ACh in [3H]-NMS competition binding on M2R in HDL particles on addition of GoA [1]: 65 fold | increase of the affinity of Ixo in [3H]-NMS competition binding on M2R in HDL particles on addition of GoA [1]: 27 fold

C[N+](C)(C)CCOC(N)=O [Carbachol, carbachol]
Phosphorylation intensity (M2R [2]; Time 5 min): 334.849 | Phosphorylation intensity (M2R [2]; Time 10 min): 686.698 | Phosphorylation intensity (M2R [2]; Time 15 min): 1559.5 | Phosphorylation intensity (M2R [2]; Time 30 min): 4508.03 | Phosphorylation intensity (M2R [2]; Time 60 min): 11137.8 | Phosphorylation intensity (M2R [2]; Time 120 min): 15286

Cc1c(Cl)c(OCC(=O)N2CCN(C)CC2)nc2sc(C(=O)NC3CC3)c(N)c12 [LY2119620]
effect on GTP-turnover for both ACh and Ixo (M2R and GoA): significant inhibitory effects | activation of the receptor by the modulator on its own (M2R [3]): can activate the receptor on its own with low efficacy | IP accumulation as % max effect of acetylcholin (M2R [3]; LY2119620 alone log [M] -4): 59.0% and 70.9% and 76.8% and 52.3% and 51.5% and 62.7% and 67.1% | IP accumulation as % max effect of acetylcholin (M2R [3]; LY2119620 alone log [M] -10): 3.3% and -1.8% and -2.5% and -3.4% and 3.1% | inhibition of maximal G-protein activation of both orthosteric agonists (M2R [3]; high concentrations of LY2119620): ~ 10% | Emax (M2R [4]; read-out: arrestin recruitment as % max effect of acetylcholin, LY2119620 log [M] 3-4): 46.3% | Emax (M2R [4]; read-out: arrestin recruitment as % max effect of acetylcholin, LY2119620 log [M] 3-5): 52.5% | Emax (M2R [4]; read-out: arrestin recruitment as % max effect of acetylcholin, LY2119620 log [M] -5): 42.1% | arrestin recruitment as % max effect of acetylcholin (M2R [4]; LY2119620 log [M] 3-4): 48.9% | arrestin recruitment as % max effect of acetylcholin (M2R [4]; LY2119620 log [M] 3-5): 50.0% and 48.5% | arrestin recruitment as % max effect of acetylcholin (M2R [4]; LY2119620 log [M] 3-7): -0.0286% and 2.4% | arrestin recruitment as % max effect of acetylcholin (M2R [4]; LY2119620 log [M] -4): 58.7% and 38.0% and 68.2% and 60.8% and 51.7% | arrestin recruitment as % max effect of acetylcholin (M2R [4]; LY2119620 log [M] -5): 33.4% and 43.9% and 30.6% and 32.3% | arrestin recruitment as % max effect of acetylcholin (M2R [4]; LY2119620 log [M] -6): 10.6% and 7.5% and 6.2% and 2.4% and 3.8% | arrestin recruitment as % max effect of acetylcholin (M2R [4]; LY2119620 log [M] -7): 2.1% and 1.5% and 2.0% and 0.9% and 2.9% | arrestin recruitment as % max effect of acetylcholin (M2R [4]; LY2119620 log [M] -8): 0.6% and 0.5% and 0.9% and -0.171% and -0.548% | arrestin recruitment as % max effect of acetylcholin (M2R [4]; LY2119620 log [M] -9): 1.3% and -0.4% and -1.2% and -3.6%
